Test results published in US9862746B2, “Compositions and methods relating to hindering DOT1L recruitment by MLL-fusion proteins” (The Regents of the University of Michigan, priority 2013, dated 2018).
Where two headings read alike, the source gives them in different places.

Experiments:
ENL = biological target: T1, ENL (Homo sapiens, UniProt Q03111); experiment: SPR competitive binding assay of small molecules, ENL; details: SPR competitive based assay; read-out: ENL IC50 ± SD
T1 construct: against AF9(497-568) and ENL (489-559) proteins running different tested concentrations over CM5 chip; MBP (pMSCG9-LIC vector); made in house; host or cells: Escherichia coli BL21 (DE3)
T1 sequence (Q03111 489-559): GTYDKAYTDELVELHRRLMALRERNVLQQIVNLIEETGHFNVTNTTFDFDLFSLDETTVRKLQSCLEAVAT
Description: (§1) To further validate the binding of the confirmed compounds and identify potential promiscuous inhibitors, several secondary assays have been developed to support hit confirmation and the hit-to-probe optimization process. In order to determine that the compounds bind effectively to the target and disrupt protein-protein interaction, a SPR competitive binding assay was used. This assay uses a platform that differs from the FP-based assay where DOT1L recombinant protein (residues […]) is immobilized on a CM5 chip, allowing for testing of the inhibitors for their ability to disrupt AF9-DOT1L protein-protein interactions.
This class of compounds was also tested for their binding against ENL protein, which is highly homologous with AF9.

AF9 [1] = biological target: T2, AF9 (Homo sapiens, UniProt P42568); experiment: Saturation Transfer Difference (STD) NMR; assay type: binding
T2 sequence (P42568 1-568): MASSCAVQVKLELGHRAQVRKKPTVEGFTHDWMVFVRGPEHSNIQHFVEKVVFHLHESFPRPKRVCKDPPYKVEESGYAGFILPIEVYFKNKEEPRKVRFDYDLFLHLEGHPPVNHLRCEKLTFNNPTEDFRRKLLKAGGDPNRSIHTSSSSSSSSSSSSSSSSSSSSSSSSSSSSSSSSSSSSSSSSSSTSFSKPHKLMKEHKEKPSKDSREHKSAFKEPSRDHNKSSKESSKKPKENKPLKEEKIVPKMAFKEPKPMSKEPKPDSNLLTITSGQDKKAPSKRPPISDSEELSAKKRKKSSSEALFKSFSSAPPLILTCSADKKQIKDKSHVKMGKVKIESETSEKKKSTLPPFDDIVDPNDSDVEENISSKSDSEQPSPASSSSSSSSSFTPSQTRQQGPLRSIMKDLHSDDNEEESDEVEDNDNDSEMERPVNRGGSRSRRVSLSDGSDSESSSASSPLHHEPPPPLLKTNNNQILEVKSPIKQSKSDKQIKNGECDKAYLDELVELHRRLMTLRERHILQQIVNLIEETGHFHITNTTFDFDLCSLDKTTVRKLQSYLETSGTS
Experimental: (§2) C) Globally fitted concentration series of 38 (100, 50, 25, 12.5 and 6.25 μM) binding to immobilized AF9 using OctetRed System (see Example 12).
(§3) To provide further validation of the hit selection in addition to the biochemical assays Saturation Transfer Difference (STD), NMR spectroscopy was used. NMR spectroscopy has been successfully utilized to detect and characterize the direct binding of small-molecule compounds to large biomolecules. This technique is also allowing characterization of the binding interactions and maps the ligand-protein contacts in the bound state, delineating which chemical moieties of the ligand molecule are key for molecular recognition by the protein (group epitope mapping, FIG. 20A). […] The direct binding of 38 was also confirmed with ThermoFluor biophysical binding assay. ThermoFluor exploits a well-known biophysical phenomenon where small changes in the intrinsic melting temperature of proteins in the presence of ligands are related to the equilibrium-binding constant. Compounds that interact with the native form of the protein will shift the equilibrium to the left, increasing the Tm, the temperature at which half the protein is unfolded. In the presence of compound 38, the Tm of MBP-AF9 protein increases in a dose-dependent manner, giving ΔTm of 1.2 degree in […] (FIG. 20B).

MBP-AF9 = biological target: T3, MBP-AF9 (Homo sapiens, UniProt P42568); experiment: ThermoFluor binding assay, MBP-AF9
T3 sequence (P42568 497-568): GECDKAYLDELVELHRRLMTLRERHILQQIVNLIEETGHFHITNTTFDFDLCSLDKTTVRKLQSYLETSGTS
Experimental: as §2, §3

MBP tag = MBP tag (Escherichia coli, UniProt P0AEX9); experiment: ThermoFluor binding assay, MBP tag only
AF9 [2] = biological target: T2, AF9; experiment: OctetRed Bio-Layer Interferometry binding to immobilized AF9; details: OctetRed BLI
Experimental: as §2
Finally, an orthogonal measure of the disruption of the DOT1L/AF9 protein interaction was obtained using OctetRed system with Bio-Layer Interferometry (BLI) technology. This technology is allowing label-free, real-time biomolecular analysis and determination of binding kinetics and affinity. […] Using global fitting of the binding data in several tested concentrations, the kinetic parameters were calculated. The observed KD values ranged from 10 μM to 50 μM, consistent with the KD from steady state calculations.

[3] = system: MLL-AF9 transformed mouse cells; experiment: Cell growth of MLL-AF9 transformed mouse cells; assay type: cell-based; details: 216 h
Description: (§4) FIG. 23 presents cell growth curves of A) MLL-AF9 and B) Hoxa9/Meis1 transformed mouse cells and C) adult LSKs after treatment with 38. D) H3K79 methylation after 6 days treatment with 38 and EPZ004777 DOT1L inhibitor (see, e.g., Daigle, et al., Cancer Cell 20, 53-65 (2011)).
(§5) This example involves the assessment of cellular effects of compound 38. […] Compound 38 inhibited growth of MLL-AF9 cells in a dose-dependent manner (FIG. 23A), with cell growth inhibition starting after 4 days of treatment. […] The hypothesis predicts that compounds that can block the DOT1L recruitment, but not its catalytic activity, will not affect normal hematopoiesis, as well as the global level of H3K79 methylation. To test this hypothesis, the toxicity of compound 38 was tested on purified LSK (lin-sca-1+ckit+) progenitors from adult wild type mice (FIG. 23C).

[4] = system: HM2 cells stably expressing Hoxa9 and Meis 1; experiment: Cell growth of HM2 (Hoxa9/Meis1) cells; assay type: cell-based, mouse
Description: as §4, §5

[5] = system: LSK (lin-sca-1+ckit+) progenitors; experiment: Toxicity on purified adult LSK progenitors; assay type: cell-based, mouse; details: 50 μM and 25 μM, up to seven days in culture
Description: as §4, §5

H3K79 methylation = experiment: Global H3K79 methylation in MLL-AF9 transformed cells; assay type: cell-based, mouse; details: 6 days treatment of MLL-AF9 transformed cells
Description: as §4, §5

AF9 [6] = biological target: T4, AF9 (Homo sapiens, UniProt P42568); experiment: SPR competitive binding assay of small molecules, AF9-DOT1L; set-up: against AF9(497-568) and ENL (489-559) proteins running different tested concentrations over CM5 chip; GB1 (pGB1-LIC vector); made in house; host or cells: Escherichia coli BL21 (DE3); details: SPR competitive based assay; read-out: AF9 IC50 ± SD
T4 sequence (P42568 497-568): T3 sequence (P42568 497-568)
Description: Several secondary assays have already been developed to support hit confirmation and the hit-to-probe optimization process. The established and optimized SPR-based competitive assay utilizing DOT1L protein (826-1095) immobilized on the CM5 sensor chip was used as a secondary counter screen assay to validate binding of compounds to AF9. […] Both assays gave similar IC50 values.
as §1

CCc1ccc(S(=O)(=O)N2c3ccccc3NC3=C(C(=O)CCC3)C2c2ccco2)cc1 (racemic) [Compound 38]
IC50 (ENL): 30.7 ± 7.7 µM
STD effects (direct binding to AF9) (AF9 [1]): strong STD effects
ΔTm of MBP-AF9 protein (MBP-AF9): 1.2 degree
thermal stability of tag MBP only (MBP tag): did not show any changes in thermal stability
Kd (AF9 [2]; several tested concentrations, read-out: KD values, global fitting of binding data): 10 to 50 µM
Kd (AF9 [2]; read-out: binding affinity (KD), steady state analysis): 35 µM
inhibition at 25 µM ([3]; day 9, 25 μM): 50%
inhibition at 50 µM ([3]; day 9, 50 μM): ~90%
cell growth of HM2 cells [4]: not affected
toxicity / growth inhibition of adult LSKs [5]: not toxic to normal hematopoiesis
global H3K79 methylation level (H3K79 methylation): not affected
IC50 (AF9 [6]): 40 ± 1.5 µM
